The NIST ThermoML archive (doi:10.1016/j.jct.2018.08.005)

Test: xn = mol fraction of the nth substance listed
Details: Liquid, Vibrating tube method

CCOC(F)(C(F)(F)C(F)(F)C(F)(F)F)C(F)(C(F)(F)F)C(F)(F)F (stereo not given) [2-trifluoromethyl-3-ethoxydodecafluorohexane] + CC(C)OC(C)C
mass density [kg/m3]
Details | x1 = 0.25 | x1 = 0.375 | x1 = 0.5 | x1 = 0.625 | x1 = 0.75
363.15 K, 70000 kPa | 1074.1 | 1203 | 1317.5 | 1418.6 | 1507
363.15 K, 80000 kPa | 1085.2 | 1215.5 | 1330.8 | 1432.6 | 1521.5
363.15 K, 90000 kPa | 1095.5 | 1227 | 1343.1 | 1445.6 | 1534.9
363.15 K, 100000 kPa | 1105.1 | 1237.5 | 1354.5 | 1457.8 | 1547.4
363.15 K, 110000 kPa | 1114.2 | 1247.5 | 1365.3 | 1469.1 | 1559.3
363.15 K, 120000 kPa | 1122.7 | 1257.1 | 1375.4 | 1479.8 | 1570.4
363.15 K, 130000 kPa | 1130.7 | 1265.9 | 1385 | 1490 | 1580.9
363.15 K, 140000 kPa | 1138.4 | 1274.6 | 1394.2 | 1499.7 | 1591
373.15 K, 10000 kPa | 957.5 | 1074 | 1179.6 | 1272.3 | 1355.8
373.15 K, 20000 kPa | 983.8 | 1103.6 | 1210.9 | 1305.3 | 1389.8
373.15 K, 30000 kPa | 1005 | 1127.2 | 1236 | 1331.8 | 1417.3
373.15 K, 40000 kPa | 1022.8 | 1147.1 | 1257.2 | 1354.2 | 1440.5
373.15 K, 50000 kPa | 1038.4 | 1164.3 | 1275.8 | 1373.8 | 1460.8
373.15 K, 60000 kPa | 1052.3 | 1179.7 | 1292.2 | 1391.2 | 1478.9
373.15 K, 70000 kPa | 1064.8 | 1193.7 | 1307.2 | 1407 | 1495.3
373.15 K, 80000 kPa | 1076.3 | 1206.4 | 1320.8 | 1421.5 | 1510.3
373.15 K, 90000 kPa | 1086.9 | 1218.3 | 1333.5 | 1435 | 1524.3
373.15 K, 100000 kPa | 1096.9 | 1229.2 | 1345.3 | 1447.4 | 1537.2
373.15 K, 110000 kPa | 1106.1 | 1239.6 | 1356.2 | 1459.1 | 1549.4
373.15 K, 120000 kPa | 1114.8 | 1249.3 | 1366.6 | 1470.1 | 1560.8
373.15 K, 130000 kPa | 1123.1 | 1258.3 | 1376.4 | 1480.5 | 1571.6
373.15 K, 140000 kPa | 1130.8 | 1267 | 1385.7 | 1490.4 | 1581.8
383.15 K, 10000 kPa | 942.8 | 1058 | 1162.6 | 1254.2 | 1336.7
383.15 K, 20000 kPa | 971.3 | 1089.6 | 1196.3 | 1289.7 | 1373.1
383.15 K, 30000 kPa | 993.8 | 1114.7 | 1223 | 1317.8 | 1402
383.15 K, 40000 kPa | 1012.6 | 1135.6 | 1245.4 | 1341.5 | 1426.5
383.15 K, 50000 kPa | 1028.9 | 1153.6 | 1264.7 | 1361.9 | 1447.6
383.15 K, 60000 kPa | 1043.2 | 1169.5 | 1281.8 | 1379.9 | 1466.4
383.15 K, 70000 kPa | 1056.2 | 1184 | 1297.2 | 1396.3 | 1483.3
383.15 K, 80000 kPa | 1068.1 | 1197.2 | 1311.3 | 1411.4 | 1498.8
383.15 K, 90000 kPa | 1079 | 1209.3 | 1324.3 | 1425 | 1513.1
383.15 K, 100000 kPa | 1089.2 | 1220.6 | 1336.3 | 1437.8 | 1526.4
383.15 K, 110000 kPa | 1098.7 | 1231.2 | 1347.6 | 1449.8 | 1538.8
383.15 K, 120000 kPa | 1107.7 | 1241.3 | 1358.3 | 1461.2 | 1550.7
383.15 K, 130000 kPa | 1116.1 | 1250.6 | 1368.1 | 1471.8 | 1561.7
383.15 K, 140000 kPa | 1124.2 | 1259.6 | 1377.9 | 1481.9 | 1572.3
393.15 K, 10000 kPa | 927.9 | 1041.6 | 1145.1 | 1235.9 | 1317.8
393.15 K, 20000 kPa | 958.4 | 1075.7 | 1181.2 | 1273.8 | 1356.7
393.15 K, 30000 kPa | 982.1 | 1102.2 | 1209.4 | 1303.4 | 1387.3
393.15 K, 40000 kPa | 1001.8 | 1124 | 1232.7 | 1328 | 1412.8
393.15 K, 50000 kPa | 1018.7 | 1142.7 | 1252.8 | 1349.1 | 1434.8
393.15 K, 60000 kPa | 1033.7 | 1159.3 | 1270.5 | 1368 | 1454.2
393.15 K, 70000 kPa | 1047.2 | 1174.3 | 1286.5 | 1385.1 | 1471.7
393.15 K, 80000 kPa | 1059.3 | 1187.7 | 1300.8 | 1400.3 | 1487.5
393.15 K, 90000 kPa | 1070.8 | 1200.4 | 1314.4 | 1414.7 | 1502.4
393.15 K, 100000 kPa | 1081.3 | 1211.9 | 1326.8 | 1428 | 1516
393.15 K, 110000 kPa | 1091 | 1222.8 | 1338.4 | 1440.1 | 1528.7
393.15 K, 120000 kPa | 1100.3 | 1233 | 1349.4 | 1451.6 | 1540.7
393.15 K, 130000 kPa | 1108.9 | 1242.6 | 1359.7 | 1462.5 | 1552.1
393.15 K, 140000 kPa | 1117 | 1251.6 | 1369.3 | 1472.9 | 1562.7
